{"source": "patent US6967196B1", "about": "“Sulfonamide compounds and uses thereof” (Bristol-Myers Squibb Company, priority 1999, dated 2005)", "test_system": "amyloid β production in transfected H4 (human neuroglioma) cells stably expressing APP constructs", "experiment": "In vitro cell-based assay of inhibitors of amyloid β production (ELISA)", "settings": "transfected H4 cells stably expressing APP, approximately 16 hours incubation, amyloid β in medium by ELISA, read-out: ACTIVITY (IC50, inhibition of amyloid β production)", "procedure,_shortened": "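Aβ secreted into the medium was read by sandwich ELISA (monoclonal capture for the Aβ C-terminus, polyclonal detection for the N-terminus) and calibrated on a standard curve. Before this, APP-expressing H4 cells were exposed to compound for ~16 h at an initial 10-100 μM, with actives then retested in dose-response.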", "note": "pIC50: −log10 of the molar value. Structures can show the parent of a compound that is named as a salt. Where two headings read alike, the source gives them in different places.", "data": [{"smiles": "O=S(=O)(c1ccc(Cl)cc1)N(Cc1ccccc1OCCSC1CCCCC1)c1cc(F)ccc1F", "note": "[Example 850, 4-chloro-N-{2-[2-(cyclohexylsulfanyl)ethoxy]benzyl}-N-(2,5-difluorophenyl)benzenesulfonamide]", "values": [{"measurement": "pIC50", "setting": "Homo sapiens, 16 h", "result": "6.30 to 7.00"}]}, {"smiles": "O=S(=O)(c1ccc(Cl)cc1)N(Cc1ccccc1OCCCN1CCCCCC1)c1ccccc1", "note": "[Example 851, N-{2-[3-(1-azepanyl)propoxy]benzyl}-4-chloro-N-phenylbenzenesulfonamide hydrochloride]", "values": [{"measurement": "pIC50", "setting": "Homo sapiens, 16 h", "result": "6.30 to 7.00"}]}, {"smiles": "O=S(=O)(c1ccc(Cl)cc1)N(Cc1ccccc1OCCCN1CCCCC1)C1CCCCC1", "note": "[Example 852, 4-chloro-N-cyclohexyl-N-{2-[3-(1-piperidinyl)propoxy]benzyl}benzenesulfonamide hydrochloride]", "values": [{"measurement": "pIC50", "setting": "Homo sapiens, 16 h", "result": "6.30 to 7.00"}]}, {"smiles": "C[C@H](c1ccccc1Br)N(c1cc(F)ccc1F)S(=O)(=O)c1ccc(Cl)cc1", "note": "[Example 855, N-[(1R)-1-(2-bromophenyl)ethyl]-4-chloro-N-(2,5-difluorophenyl)benzenesulfonamide]", "values": [{"measurement": "pIC50", "setting": "Homo sapiens, 16 h", "result": "6.30 to 7.00"}]}, {"smiles": "O=S(=O)(c1ccc(Cl)cc1)N(Cc1ccccc1OCCCN1CCOCC1)c1ccccc1", "note": "[Example 859, 4-chloro-N-{2-[3-(4-morpholinyl)propoxy]benzyl}-N-phenylbenzenesulfonamide hydrochloride]", "values": [{"measurement": "pIC50", "setting": "Homo sapiens, 16 h", "result": "6.30 to 7.00"}]}, {"smiles": "Cc1cccc(C(=O)N2CCCCC2CCOc2ccccc2CN(c2cc(F)ccc2F)S(=O)(=O)c2ccc(Cl)cc2)c1", "note": "(centres unmarked) [Example 860, 4-chloro-N-(2,5-difluorophenyl)-N-(2-{2-[1-(3-methylbenzoyl)-2-piperidinyl]ethoxy}benzyl)benzenesulfonamide]", "values": [{"measurement": "pIC50", "setting": "Homo sapiens, 16 h", "result": "6.30 to 7.00"}]}, {"smiles": "C[C@@H](c1ccccc1OCCCn1ccnc1)N(c1cc(F)ccc1F)S(=O)(=O)c1ccc(Cl)cc1", "note": "[Example 861, 4-chloro-N-(2,5-difluorophenyl)-N-((1S)-1-{2-[3-(1H-imidazol-1-yl)propoxy]phenyl}ethyl)benzenesulfonamide hydrochloride]", "values": [{"measurement": "pIC50", "setting": "hydrochloride", "result": "6.30 to 7.00"}]}, {"smiles": "CCC1CCCCN1CCCOc1ccccc1CN(c1ccccc1)S(=O)(=O)c1ccc(Cl)cc1", "note": "(centres unmarked) [Example 865, 4-chloro-N-{2-[3-(2-ethyl-1-piperidinyl)propoxy]benzyl}-N-phenylbenzenesulfonamide hydrochloride]", "values": [{"measurement": "pIC50", "setting": "Homo sapiens, 16 h", "result": "6.30 to 7.00"}]}, {"smiles": "O=S(=O)(c1ccc(Cl)cc1)N(Cc1ccccc1OCCCN1CCCCC1)c1ccccc1Br", "note": "[Example 866, N-(2-bromophenyl)-4-chloro-N-{2-[3-(1-piperidinyl)propoxy]benzyl}benzenesulfonamide hydrochloride]", "values": [{"measurement": "pIC50", "setting": "Homo sapiens, 16 h", "result": "6.30 to 7.00"}]}, {"smiles": "CCC[C@@H](C)N(Cc1ccccc1OCCCN1CCCCC1)S(=O)(=O)c1ccc(Cl)cc1", "note": "[Example 867, 4-chloro-N-[(1R)-1-methylbutyl]-N-{2-[3-(1-piperidinyl)propoxy]benzyl}benzenesulfonamide hydrochloride]", "values": [{"measurement": "pIC50", "setting": "hydrochloride", "result": "6.30 to 7.00"}]}, {"smiles": "O=S(=O)(c1ccc(Cl)cc1)N(Nc1cc(F)ccc1F)[C@H](CO)c1ccccc1", "note": "[Example 868, 4-chloro-N-(2,5-difluoroanilino)-N-[(1S)-2-hydroxy-1-phenylethyl]benzenesulfonamide]", "values": [{"measurement": "pIC50", "setting": "Homo sapiens, 16 h", "result": "6.30 to 7.00"}]}, {"smiles": "O=S(=O)(c1ccc(Cl)cc1)N(Cc1ccccc1OCCCSC1CCCCC1)c1cc(F)ccc1F", "note": "[Example 869, 4-chloro-N-{2-[3-(cyclohexylsulfanyl)propoxy]benzyl}-N-(2,5-difluorophenyl)benzenesulfonamide]", "values": [{"measurement": "pIC50", "setting": "Homo sapiens, 16 h", "result": "6.30 to 7.00"}]}, {"smiles": "COc1ccc(S(=O)(=O)CCCOc2ccccc2CN(Nc2cc(F)ccc2F)S(=O)(=O)c2ccc(Cl)cc2)cc1", "note": "[Example 871, 4-chloro-N-(2,5-difluoroanilino)-N-(2-{3-[(4-methoxyphenyl)sulfonyl]propoxy}benzyl)benzenesulfonamide]", "values": [{"measurement": "pIC50", "setting": "Homo sapiens, 16 h", "result": "6.30 to 7.00"}]}, {"smiles": "C=Cc1ccccc1[C@@H](C)N(c1cc(F)ccc1F)S(=O)(=O)c1ccc(Cl)cc1", "note": "[Example 874, 4-chloro-N-(2,5-difluorophenyl)-N-[(1R)-1-(2-vinylphenyl)ethyl]benzenesulfonamide]", "values": [{"measurement": "pIC50", "setting": "Homo sapiens, 16 h", "result": "6.30 to 7.00"}]}, {"smiles": "Cc1ccccc1N(Cc1ccccc1OCCCN1CCCCC1)S(=O)(=O)c1ccc(Cl)cc1", "note": "[Example 875, 4-chloro-N-(2-methylphenyl)-N-{2-[3-(1-piperidinyl)propoxy]benzyl}benzenesulfonamide hydrochloride]", "values": [{"measurement": "pIC50", "setting": "Homo sapiens, 16 h", "result": "6.30 to 7.00"}]}, {"smiles": "O=S(=O)(c1ccc(Cl)cc1)N(Cc1ccccc1OCCCN1CCC2(CC1)OCCO2)c1ccccc1", "note": "[Example 877, 4-chloro-N-{2-[3-(1,4-dioxa-8-azaspiro[4.5]dec-8-yl)propoxy]benzyl}-N-phenylbenzenesulfonamide]", "values": [{"measurement": "pIC50", "setting": "Homo sapiens, 16 h", "result": "6.30 to 7.00"}]}, {"smiles": "CCC(c1ccccc1OCCCN1CCCCC1)N(c1cc(F)ccc1F)S(=O)(=O)c1ccc(Cl)cc1", "note": "(centres unmarked) [Example 878, 4-chloro-N-(2,5-difluorophenyl)-N-(1-{2-[3-(1-piperidinyl)propoxy]phenyl}propyl)benzenesulfonamide hydrochloride]", "values": [{"measurement": "pIC50", "setting": "Homo sapiens, 16 h", "result": "< 6.30"}]}, {"smiles": "COc1ccc(S(=O)(=O)N(Cc2ccccc2OCCCN2CCCCC2)c2cc(F)ccc2F)cc1", "note": "[Example 879, N-(2,5-difluorophenyl)-4-methoxy-N-{2-[3-(1-piperidinyl)propoxy]benzyl}benzenesulfonamide hydrochloride]", "values": [{"measurement": "pIC50", "setting": "Homo sapiens, 16 h", "result": "< 6.30"}]}, {"smiles": "O=S(=O)(c1ccc(Cl)cc1)N(Cc1ccccc1OCCCN1CCC(Cc2ccccc2)CC1)c1ccccc1", "note": "[Example 880, N-{2-[3-(4-benzyl-1-piperidinyl)propoxy]benzyl}-4-chloro-N-phenylbenzenesulfonamide hydrochloride]", "values": [{"measurement": "pIC50", "setting": "Homo sapiens, 16 h", "result": "< 6.30"}]}, {"smiles": "O=S(=O)(c1ccc(Cl)cc1)N(Cc1ccccc1OCCCn1ccnc1)c1ccccc1", "note": "[Example 882, 4-chloro-N-{2-[3-(1H-imidazol-1-yl)propoxy]benzyl}-N-phenylbenzenesulfonamide hydrochloride]", "values": [{"measurement": "pIC50", "setting": "Homo sapiens, 16 h", "result": "< 6.30"}]}, {"smiles": "O=S(=O)(c1ccc(Cl)cc1)N(Cc1ccccc1OCCC[N+]1([O-])CCCCC1)c1ccccc1", "note": "[Example 883]", "values": [{"measurement": "pIC50", "result": "< 6.30"}]}, {"smiles": "Cc1ccc(C(=O)N2CCCCC2CCOc2ccccc2CN(c2cc(F)ccc2F)S(=O)(=O)c2ccc(Cl)cc2)cc1", "note": "(centres unmarked) [Example 884, 4-chloro-N-(2,5-difluorophenyl)-N-(2-{2-[1-(4-methylbenzoyl)-2-piperidinyl]ethoxy}benzyl)benzenesulfonamide]", "values": [{"measurement": "pIC50", "setting": "Homo sapiens, 16 h", "result": "< 6.30"}]}, {"smiles": "CC(COc1ccccc1C(C)N(c1cc(F)ccc1F)S(=O)(=O)c1ccc(Cl)cc1)N(C)S(=O)(=O)c1ccc(Cl)cc1", "note": "(centres unmarked) [Example 885, 4-chloro-N-[1-(2-{2-[[(4-chlorophenyl)sulfonyl](methyl)amino]propoxy}phenyl)ethyl]-N-(2,5-difluorophenyl)benzenesulfonamide]", "values": [{"measurement": "pIC50", "setting": "Homo sapiens, 16 h", "result": "< 6.30"}]}, {"smiles": "O=S(=O)(c1ccc(Cl)cc1)N(Cc1ccccc1)Cc1ccccc1OCCCN1CCCCC1", "note": "[Example 886, N-benzyl-4-chloro-N-{2-[3-(1-piperidinyl)propoxy]benzyl}benzenesulfonamide hydrochloride]", "values": [{"measurement": "pIC50", "setting": "Homo sapiens, 16 h", "result": "< 6.30"}]}, {"smiles": "O=S(=O)(c1ccc(Cl)cc1)N(Cc1ccccc1OCCCN1CCCCC1)c1cc(Cl)ccc1O", "note": "[Example 887, 4-chloro-N-(5-chloro-2-hydroxyphenyl)-N-{2-[3-(1-piperidinyl)propoxy]benzyl}benzenesulfonamide hydrochloride]", "values": [{"measurement": "pIC50", "setting": "Homo sapiens, 16 h", "result": "< 6.30"}]}, {"smiles": "CC(C)N(C(=O)N(C)CCOc1ccccc1C(C)N(c1cc(F)ccc1F)S(=O)(=O)c1ccc(Cl)cc1)C(C)C", "note": "(centres unmarked) [Example 888, 4-chloro-N-(2,5-difluorophenyl)-N-[1-(2-{2-[[(diisopropylamino)carbonyl](methyl)amino]ethoxy}phenyl)ethyl]benzenesulfonamide]", "values": [{"measurement": "pIC50", "setting": "Homo sapiens, 16 h", "result": "< 6.30"}]}]}
